Patent publication US20040024024A1, “Aromatic sulfone hydroxamates and their use as protease inhibitors” (priority 2001, published 2004)

Columns and labels:
Format in all cases: biochemical
[1] = target: T1, Human recombinant MMP-13 (Homo sapiens, UniProt P45452); experiment: In vitro MMP inhibition, Ki determination (fluorogenic substrate II)
T1 construct: made in house; host or cells: baculovirus / insect cells
Experimental: (§1) Several hydroxamates and salts thereof were analyzed in in vitro assays to determine their ability to inhibit the MMP cleavage of peptide substrates. Inhibition (Ki) and IC50 constants were calculated from the assayed hydroxamate-MMP interactions.
(§2) Human recombinant MMP-1, MMP-2, MMP-9, MMP-13, and MMP-14 were used in this assay. All enzymes were prepared in Assignee's laboratories following usual laboratory procedures. Protocols for the preparation and use of these enzymes are available in the scientific literature. See, e.g., Enzyme Nomenclature (Academic Press, San Diego, Calif., 1992) (and the citations therein). See also, Frije et al., J. Biol. Chem., 26(24), 16766-73 (1994).
The expressed proenzyme was first purified over a heparin agarose column, and then over a chelating zinc chloride column. The proenzyme was then activated by APMA for use in the assay. Further details on baculovirus expression systems may be found in, for example, Luckow et al., J. Virol., 67, 4566-79 (1993). See also, O'Reilly et al, Baculovirus Expression Vectors: A Laboratory Manual (W. H. Freeman and Co., New York, N.Y., 1992). See also, King et al., The Baculovirus Expression System: A Laboratory Guide (Chapman & Hall, London, England, 1992).
(§3) All MMPs were activated using 4-aminophenylmercuric acetate (“APMA”, Sigma Chemical, St. Louis, Mo.) or trypsin. MMP-9 also was activated using human recombinant MMP-3 (purified in Assignee's laboratory following standard cloning and purification techniques).
(§4) Two fluorogenic, methoxycoumarin-containing polypeptide substrates were used in the MMP inhibition assays:
(§5) MCA-ArgProLeuGlyLeuDpaAlaArgGluArgNH2 (II)
(§6) Here, “Dpa” is 3-(2,4-dinitrophenyl)-L-2,3-diaminopropionyl group, and “MCA” is 7-methoxycoumarin-4-yl acetyl. Substrate (I) was purchased from Baychem (Redwood City, Calif.), and substrate II was prepared Assignee's laboratory. Substrate I was used in the IC50 determination assays, while substrate II was used in the Ki determination assays. In the absence of MMP inhibitory activity, either substrate is cleaved at the Gly-Leu peptide bond. This cleavage separates the highly fluorogenic peptide from the 2,4-dinitrophenyl quencher, thus resulting in increase of fluorescent intensity.
(§7) The stock solutions of the assayed hydroxamates (or salts thereof) were prepared in 1% dimethyl sulfoxide (DMSO). These stock solutions were diluted in Buffer A (100 mM Tris-HCl, 100 mM NaCl, 10 mM CaCl2, 0.05% polyoxyethylene 23 lauryl ether, pH 7.5) to obtain solutions with different hydroxamate concentrations, i.e., assay solutions with different concentrations of the assayed MMP inhibitory compound. The experiment controls contained the same amount of Buffer A/DMSO as the assayed sample, but contained no hydroxamate (or salt thereof).
(§8) The assays from which the Ki determinations were made were performed as follows. The assayed hydroxamate samples were incubated in separate wells of untreated white polystyrene plates (Nunc Nalgene International, Rochester, N.Y.), and analyzed on a Tecan SpectraFlour Plus plate reader. The excitation wavelength was 330 nm, and the emission wavelength—420 nm. All samples (assayed hydroxamates and controls) were incubated in separate plate wells at room temperature for 1 hr in the presence of 4 μM of MMP substrate (II). In the absence of MMP inhibitory activity, substrate II was cleaved at the Gly-Leu bond resulting in an increase of relative fluorescence. Inhibition was observed as a reduced rate of this increase in relative fluorescence. The various hydroxamates were analyzed using a single low enzyme concentration with a single substrate concentration fixed at or below the Km. This protocol is a modification of method by Knight et al., FEBS Lett., 296(3), 263-266 (1992). Apparent inhibitory constants were determined by non-linear regression of reaction velocity as a function of inhibitor and enzyme concentration using Morrison's equation, as described by Kuzmic, Anal. Biochem. 286, 45-50 (2000). […]

[2] = target: T2, Human recombinant MMP-9 (Homo sapiens, UniProt P14780); experiment: In vitro MMP inhibition, IC50 determination (fluorogenic substrate I)
T2 construct: made in house; host or cells: MMP-9-transfected HT1080 cells (spent media)
T2 sequence (P14780 107-707 limits assumed): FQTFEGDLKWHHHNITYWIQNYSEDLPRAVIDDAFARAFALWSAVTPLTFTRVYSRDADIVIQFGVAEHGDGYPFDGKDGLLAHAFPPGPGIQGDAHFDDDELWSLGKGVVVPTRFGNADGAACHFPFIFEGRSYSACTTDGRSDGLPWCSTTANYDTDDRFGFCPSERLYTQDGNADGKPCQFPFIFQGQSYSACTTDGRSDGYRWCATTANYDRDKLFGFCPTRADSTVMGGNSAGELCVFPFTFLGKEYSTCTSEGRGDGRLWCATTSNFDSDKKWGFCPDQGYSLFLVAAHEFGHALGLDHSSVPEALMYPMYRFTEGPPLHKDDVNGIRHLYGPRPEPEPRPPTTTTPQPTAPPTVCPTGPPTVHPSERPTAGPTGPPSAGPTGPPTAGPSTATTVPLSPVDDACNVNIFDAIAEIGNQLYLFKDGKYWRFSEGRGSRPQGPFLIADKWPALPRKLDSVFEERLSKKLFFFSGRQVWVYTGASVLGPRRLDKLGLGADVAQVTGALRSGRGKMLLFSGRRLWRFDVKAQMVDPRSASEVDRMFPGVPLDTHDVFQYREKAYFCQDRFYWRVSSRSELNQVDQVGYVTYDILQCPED
In short: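 MMP-9 proenzyme purified from transfected HT1080 cell media, activated with APMA or trypsin. Compound dilutions in pH 7.5 Tris/NaCl/CaCl2 buffer with 0.05% polyoxyethylene 23 lauryl ether, incubated at room temperature with 4 μM MCA/Dpa substrate I. IC50 from fluorescence loss (ex 328, em 415 nm) versus inhibitor concentration.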

[3] = target: T3, Human recombinant MMP-14 (Homo sapiens, UniProt P50281); experiment: In vitro MMP inhibition, Ki determination (fluorogenic substrate II)
T3 construct: The catalytic domain enzyme was expressed in E. coli inclusion bodies, solubilized in urea; made in house
Experimental: as §1, §2
The MMP-14 full length cDNA was provided by Dr. Gregory Goldberg of Washington University (St. Louis, Mo.). The catalytic domain enzyme was expressed in E. coli inclusion bodies, solubilized in urea, purified on a preparative […] reverse phase HPLC column, and then refolded in the presence of zinc acetate and purified for use.
as §3, §4, §5, §6, §7
as §8, with “(2000). Modifications were made in the non-linear regression method to allow a common control reaction rate and effective enzyme concentration to be shared between all dose-response relationships on a given assay plate.” for “(2000).”

Ki ([1]; value in parenthesis) [nM] | IC50 ([2]; value outside parenthesis) [nM] | Ki ([3]; value in parenthesis) [nM] | Ki ([1]; value in parentheses) [nM] | IC50 ([2]; value outside parentheses) [nM] | Ki ([3]; value in parentheses) [nM] | Compound
0.324 | 180 | 6290 |  |  |  | O=C(CCCOc1ccc(S(=O)(=O)C2(C(=O)NO)CCOCC2)cc1)Nc1ccc(OC(F)(F)F)cc1 [Example 228]
0.27 | 294 | 7870 |  |  |  | Cc1cc(OC(F)(F)F)ccc1NC(=O)CCCOc1ccc(S(=O)(=O)C2(C(=O)NO)CCOCC2)cc1 [Example 229]
0.137 | 832 | > 10000 |  |  |  | COc1ccc(/C(C#N)=C/CCCOc2ccc(S(=O)(=O)C3(C(=O)NO)CCN(C4CC4)CC3)cc2)cc1 [Example 233]
1.49 | 3630 | > 10000 |  |  |  | CN(C(=O)CCCOc1ccc(S(=O)(=O)C2(C(=O)NO)CCOCC2)cc1)c1ccc(OC(F)(F)F)cc1 [Example 249]
0.127 | 22.5 | 1700 |  |  |  | O=C(CCCOc1ccc(S(=O)(=O)C2(C(=O)NO)CCOCC2)cc1)Nc1ccc(OC(F)(F)F)cc1 [Example 250]
0.547 | > 10000 | > 10000 |  |  |  | Cc1cc(NC(=O)CCCOc2ccc(S(=O)(=O)C3(C(=O)NO)CCOCC3)cc2)ccc1OC(C)C [Example 290]
 |  |  | 0.234 | 1650 | > 10000 | O=C(NO)C1(S(=O)(=O)c2ccc(OCCCc3cncc(-c4ccc(F)cc4)c3)cc2)CCOCC1 [Example 523]
 |  |  | 0.244 | 1840 | > 10000 | O=C(NO)C1(S(=O)(=O)c2ccc(OCCCc3cncc(-c4ccccc4)c3)cc2)CCOCC1 [Example 524]
 |  |  | 1.42 | 1370 | 4150 | O=C(NO)C1(S(=O)(=O)c2ccc(OCCCc3cc(-c4ccc(F)cc4F)cs3)cc2)CCOCC1 [Example 587]
 |  |  | 0.19 | 12 | 8740 | CCN1CCC(C(=O)NO)(S(=O)(=O)c2ccc(OCCCSc3nc4ccccc4s3)cc2)CC1 [Example 591]
 |  |  | 7.25 | 1730 | > 10000 | O=C(NO)C1(S(=O)(=O)c2ccc(OCCCc3cccc(-c4cccs4)c3)cc2)CCOCC1 [Example 595]
 |  |  | 0.398 | 194 | 1160 | O=C(Cc1csc2ccccc12)NCCOc1ccc(S(=O)(=O)C2(C(=O)NO)CCOCC2)cc1 [Example 596]
 |  |  | 9.34 | 1790 | > 10000 | O=C(NO)C1(S(=O)(=O)c2ccc(OCCCc3cc(-c4ccc(OC(F)(F)F)cc4)cs3)cc2)CCOCC1 [Example 608]
 |  |  | 0.9 | 1030 | 7580 | N#Cc1ccc(-c2cccc(CCCOc3ccc(S(=O)(=O)C4(C(=O)NO)CCOCC4)cc3)c2)cc1 [Example 624]
 |  |  | 7.5 | 885 | > 10000 | O=C(NO)C1(S(=O)(=O)c2ccc(OCCCc3cccc(-c4ccc([N+](=O)[O-])cc4)c3)cc2)CCOCC1 [Example 626]
 |  |  | 19.8 | 1750 | > 10000 | O=C(NO)C1(S(=O)(=O)c2ccc(OCCCc3cccc(-c4ccc5c(c4)OCO5)c3)cc2)CCOCC1 [Example 628]
 |  |  | 6.02 | 5990 | > 10000 | O=C(NO)C1(S(=O)(=O)c2ccc(OCCCc3cccc(-c4ccc(F)cc4F)c3)cc2)CCOCC1 [Example 630]
 |  |  | 6.54 | 411 | > 10000 | O=C(NO)C1(S(=O)(=O)c2ccc(OCCCc3cccc(-c4ccsc4)c3)cc2)CCOCC1 [Example 632]
 |  |  | 4.63 | 830 | > 10000 | O=C(NO)C1(S(=O)(=O)c2ccc(OCCCc3cccc(-c4ccoc4)c3)cc2)CCOCC1 [Example 637]
